According to publication PMC8626637, “Successful Prediction of Human Fetal Exposure to P-Glycoprotein Substrate Drugs Using the Proteomics-Informed Relative Expression Factor Approach and PBPK Modeling and Simulation” (Drug Metabolism and Disposition, 2021):
Converted amounts (≈) assume the structure as drawn. “And” between values parts separate entries of the source, which are not always exact repeats. Equal values may be shown once. Read-outs that look alike come from different tables or passages of the source.

Assays:
[1] = ref DrugBank database; cited from earlier work
P-gp [2] = biological target: T1, P-gp (Homo sapiens, UniProt P08183); experiment: in vitro; conditions: MDCK-MDR1, pH 7.4
[3] = test system: 11 β-hydroxysteroid dehydrogenase-2; design: method as in Blanford and Murphy, 1977; Murphy et al., 2007; conditions: ref Blanford and Murphy, 1977, Murphy et al., 2007; cited from earlier work
[4] = in vivo, at term; ref Zhang and Unadkat, 2017; cited from earlier work
MDCKII or Caco-2 cells = conditions: determined in MDCKII or Caco-2 cells; ref Zhang and Unadkat, 2017; cited from earlier work
[5] = Estimation of in vivo transplacental passive diffusion clearance by scaling midazolam CLint,PD,placenta with Papp ratio; design: species or system human; conditions: at term, scaled from midazolam by Papp ratio
P-gp [6] = biological target: T1, P-gp; conditions: for ERP-gp ERTRQ(−) − ERTRQ(+): P-gp-mediated efflux ratio
placental P-gp = experiment: m-f PBPK prediction of maternal-fetal pharmacokinetics at gestational week 20 (GW20); design: species or system human
Description: GW20 was chosen since this is the earliest gestational age at which all the fetal physiologic parameters (e.g., organ volumes, partition coefficients, blood flows) are available.

[7] = Observed or PopPK-model (published) maternal and fetal UV plasma pharmacokinetics in pregnant women; conditions: coadministered with RTV

T1 sequence (P08183 whole entry): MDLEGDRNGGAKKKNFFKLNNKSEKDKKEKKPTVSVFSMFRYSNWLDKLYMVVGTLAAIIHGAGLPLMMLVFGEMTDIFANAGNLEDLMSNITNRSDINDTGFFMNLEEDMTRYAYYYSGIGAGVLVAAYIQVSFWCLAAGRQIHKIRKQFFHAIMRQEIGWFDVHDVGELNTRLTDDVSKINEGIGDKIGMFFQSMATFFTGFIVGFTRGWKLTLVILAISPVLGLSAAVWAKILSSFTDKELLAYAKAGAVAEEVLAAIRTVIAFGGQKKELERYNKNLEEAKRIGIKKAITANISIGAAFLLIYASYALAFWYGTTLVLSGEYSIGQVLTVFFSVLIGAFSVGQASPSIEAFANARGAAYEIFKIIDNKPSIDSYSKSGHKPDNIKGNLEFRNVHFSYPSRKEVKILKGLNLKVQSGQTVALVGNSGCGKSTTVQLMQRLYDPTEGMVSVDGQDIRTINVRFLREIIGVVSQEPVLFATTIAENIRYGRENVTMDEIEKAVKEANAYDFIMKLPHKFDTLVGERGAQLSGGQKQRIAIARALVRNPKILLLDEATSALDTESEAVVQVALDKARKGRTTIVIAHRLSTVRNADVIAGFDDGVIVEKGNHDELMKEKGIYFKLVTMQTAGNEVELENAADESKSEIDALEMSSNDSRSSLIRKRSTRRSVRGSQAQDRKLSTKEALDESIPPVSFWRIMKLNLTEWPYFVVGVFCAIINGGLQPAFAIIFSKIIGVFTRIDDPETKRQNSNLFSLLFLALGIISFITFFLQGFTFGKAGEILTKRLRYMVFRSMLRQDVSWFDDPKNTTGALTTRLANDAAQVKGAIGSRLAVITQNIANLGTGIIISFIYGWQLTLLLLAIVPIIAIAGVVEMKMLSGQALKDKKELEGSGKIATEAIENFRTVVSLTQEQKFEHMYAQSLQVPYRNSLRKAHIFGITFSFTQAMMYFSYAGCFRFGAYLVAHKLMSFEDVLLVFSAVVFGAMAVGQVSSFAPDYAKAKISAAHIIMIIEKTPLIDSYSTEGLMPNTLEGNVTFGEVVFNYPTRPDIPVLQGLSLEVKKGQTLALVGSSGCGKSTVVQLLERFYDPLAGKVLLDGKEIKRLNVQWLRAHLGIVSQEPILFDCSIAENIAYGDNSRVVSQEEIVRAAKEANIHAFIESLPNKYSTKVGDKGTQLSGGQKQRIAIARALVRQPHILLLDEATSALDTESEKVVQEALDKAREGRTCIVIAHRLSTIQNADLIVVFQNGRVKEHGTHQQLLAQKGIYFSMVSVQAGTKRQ

For `CC(C)CN(C[C@@H](O)[C@H](Cc1ccccc1)NC(=O)O[C@H]1CO[C@H]2OCC[C@H]21)S(=O)(=O)c1ccc(N)cc1` [DRV, darunavir], the solubility [1] is listed as 16 µM (≈ 8.76 µg/mL).

`C=C[C@H]1C[N@@]2CC[C@H]1C[C@@H]2[C@@H](O)c1ccnc2ccc(OC)cc12` [QND, Quinidine] showed an efflux ratio at 3 µM (P-gp [2]) of 11.1 ± 2.5.

For `C[C@H]1C[C@H]2[C@@H]3CCC4=CC(=O)C=C[C@]4(C)[C@@]3(F)[C@@H](O)C[C@]2(C)[C@@]1(O)C(=O)CO` [BET, betamethasone], the “metabolized over 6 hours in vitro in placental microsomes” value [3] is listed as 10%–15%.

In the case of `Cc1ncc2n1-c1ccc(Cl)cc1C(c1ccccc1F)=NC2` [MDZ, midazolam], the “CLint,PD,placenta” value [4] is listed as 500 L/h and the Papp (MDCKII or Caco-2 cells) is listed as 49 ×10⁻⁶ cm/s.

In the case of `Cc1cccc(C)c1OCC(=O)N[C@@H](Cc1ccccc1)[C@@H](O)C[C@H](Cc1ccccc1)NC(=O)[C@H](C(C)C)N1CCCNC1=O` [LPV, lopinavir], the solubility [1] is given as 3 µM (≈ 1.89 µg/mL), the “CLint,PD,placenta” value [5] is given as 127 L/h and the “ERP-gp ERTRQ(−) − ERTRQ(+)” value (P-gp [6]; Mean ± S.D. of 4 experiments) is given as 83.1 ± 10.1 and 83.1 ± 10.05. For the same molecule, the “ERP-gp ERTRQ(−) − ERTRQ(+)” value (P-gp [6]; individual experiments (Exp no. 1-4)) was 94.35 and 88.78 and 73.99 and 75.27, the “ERTRQ(−)” value (P-gp [6]; efflux ratio without tariquidar, individual experiments (Exp no. 1-4, each in triplicate), 2 µM DEX, BET, DRV, 1 µM LPV) was 95.37 and 90.07 and 75.63 and 76.57 and the Papp (P-gp [2]) was 12.5 ×10⁻⁶ cm/s. For the same molecule, the “CLint,P-gp,placenta” value (placental P-gp; GW20, adjusted for total placental P-gp abundance) was 617 L/h, the “CLint,PD,placenta” value (placental P-gp; GW20, from term value adjusted for placental surface area) was 49.5 L/h and the “CLint,P-gp,placenta at GW20, lower than the corresponding value at GW38” value (placental P-gp; GW20 versus GW38) was 40%. The “fetal Kp,uu at GW20 as percent of that at GW38” value (placental P-gp; m-f PBPK predicted) was 64%, the “fetal UV plasma AUC0-12 at GW20 as percent of that at GW38” value (placental P-gp; m-f PBPK predicted) was 38% and the “fetal plasma Cmax at GW20 as percent of that at GW38” value (placental P-gp; m-f PBPK predicted) was 41%. The “observed increase in maternal clearance in pregnancy” value [7] was 1.4 fold.

In the case of `C[C@@H]1C[C@H]2[C@@H]3CCC4=CC(=O)C=C[C@]4(C)[C@@]3(F)[C@@H](O)C[C@]2(C)[C@@]1(O)C(=O)CO` [DEX, dexamethasone], the “metabolized over 6 hours in vitro in placental microsomes” value [3] is given as 10%–15%.
